Assays:
E coli = test: Growth medium study, antimicrobial test of meltblown fibers against E. coli; format: cell-based; conditions: compared to a control at the same time; for reduction of E. coli colony forming units at twenty four hours compared to a control: 24 hours
Protocol: E. coli: Prep Culti-Loop in 1.0 ml sterile TSB for 10 min.
ATCC 8739 Streak to TSA slant and grow for 24 hours @ 35 C
For S. aureus and E. coli, make 1:100 dilution of stock culture solution, and add 1.0 ml of the diluted solution to 1.0 liter of MGM.
S. aureus: 94.4 ml stock PBS+849.6 DI water; adjust pH & sterilize. (or 994 ml pre-diluted PBS Stock solution). (2X+2)200=2000 ml for 4. • ADD: 1.0 ml MSM • 50 ml BME vitamins. • 5 ml 1% Peptone. • 1.0 ml diluted Bacterial Culture (pre-made) • b. E. coli: 94.9 ml stock PBS+854.1 ml DI water; adjust pH & sterilize. (or 949 ml pre-diluted PBS Stock solution). (2X+2)200=2000 ml for 4. • ADD: 1.0 ml MSM • 50 ml BME vitamins. • 1.0 ml diluted Bacterial Culture (pre-made) • c. C. albicans: 92.9 ml stock PBS+836.1 ml DI water; adjust pH & sterilize. (or 929 ml pre-diluted PBS Stock solution). (2X+2)200=2000 ml for 4. • ADD: 1.0 ml MSM • 50 ml BME vitamins. • 20 ml 10% Peptone. • 10 ml 10% (NH4)2SO4 • 1.0 ml of Undiluted Bacterial Culture (pre-made) 7. Product to test:
Prep enough sterile 250 Plastic Bottles to handle 2 repetitions of each organism plus pos. and neg. control. (45 flasks are needed to test 6 products.) • B. Label all Plastic Bottles with organism (Staph, E. coli, C alb.), plus Sequential Number (W-1,W-2 . . . , W-45). • c. Add 2.0 gm of each product to be tested to each Plastic Bottle (or a sterile blender if Sample is not soft), then add 200 ml of inoculated MGM. Incubate, with shaking (in wire milk case—attached to shaker waterbath—plus one or two plastic cases) for 4 and 24 hours at 37 C Run duplicate tests. […] Run two bottles for each organism containing 200 ml of inoculated MGM, without Weyerhaeuser Sample. These are Blanks. • f. Run positive controls, TSB in place of Sample (see below) for each organism type. […] Incubation and counting. • a. […]

C. Albicans = test: Growth medium study, antimicrobial test of meltblown fibers against C. albicans; format: cell-based; conditions: compared to a control at the same time
Protocol: Growth Medium Study Procedure
C. albicans: Prep Culti-Loop in 1.0 ml of sterile dilute PBS
ATCC 10231 Solution for 10 min. Streak onto SDA and grow for 24 hours @ 35 C
a. Prepare 9.0 ml dilute PBS tubes. Remove (wash) each culture organism from slants and add to PBS tubes.
Adjust so the turbidity of the culture matches a 0.5 McFarland solution (In BAM Media Pages). This is the stock culture solution. (S. aureus & E. coli, C. albicans.)
c. For C. albicans add 1.0 ml stock culture solution to 1.0 liter of MGM. (about […] final population)
6. Specialized MGM solutions for each Organism: • a. S. aureus: 94.4 ml stock PBS+849.6 DI water; adjust pH & sterilize. (or […] pre-diluted PBS Stock solution). (2X+2)200=2000 ml for 4. • ADD: 1.0 ml MSM • 50 ml BME vitamins. • 5 ml 1% Peptone. • 1.0 ml diluted Bacterial Culture (pre-made) • b. E. coli: 94.9 ml stock PBS+854.1 ml DI water; adjust pH & sterilize. (or 949 ml pre-diluted PBS Stock solution). (2X+2)200=2000 ml for 4. • ADD: 1.0 ml MSM • 50 ml BME vitamins. • 1.0 ml diluted Bacterial Culture (pre-made) • c. C. albicans: 92.9 ml stock PBS+836.1 ml DI water; adjust pH & sterilize. (or 929 ml pre-diluted PBS Stock solution). (2X+2)200=2000 ml for 4. • ADD: 1.0 ml MSM • 50 ml BME vitamins. • 20 ml 10% Peptone. • 10 ml 10% (NH4)2SO4 • 1.0 ml of Undiluted Bacterial Culture (pre-made) 7. Product to test:
a. […]

Structure (SMILES) | reduction of E. coli colony forming units at four hours compared to a control (E coli; 4 hours) | reduction of E. coli colony forming units at twenty four hours compared to a control (E coli) | reduction of C. albicans count at four hours compared to a control (C. Albicans; 4 hours) | reduction of C. albicans count at twenty four hours compared to a control (C. Albicans; 24 hours)
O=C([O-])[O-].[Ca+2] [calcium carbonate, Calcium carbonate] | more than ninety five | more than ninety five |  | 
[O]=[Zn] [Zinc oxide] |  | at least ninety five | at least ninety five | at least ninety five

From patent publication US20090004474A1, “Lyocell fibers with anti-microbial activity” (Weyerhaeuser Co., priority 2007, published 2009)
